# Reference: ChEMBL document CHEMBL1201862, “PubChem BioAssay data set” (2004)
#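 The compound was tested at five concentrations on cells cultured in 96-well plates, with a 48-hour exposure period. GI50 = concentration required for 50% inhibition of growth.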 Activity calls are given as the source filed them. Cut-off read from the data, not from the text of the source: active = GI50 up to about 1.1 µM and inactive = higher.
# Legend:
# Assay in all cases: NCI-60 cell line screen, 48 h
# HCC 2998 = test system: HCC 2998
# SK-MEL-5 = test system: SK-MEL-5
# NCI-H23 = test system: NCI-H23
# ACHN = test system: ACHN
# SF-295 = test system: SF-295
# U-251 = test system: U-251
# SNB-19 = test system: SNB-19
# UACC-257 = test system: UACC-257
# SW-620 = test system: SW-620
# LOX IMVI = test system: LOX IMVI
# HL-60 = test system: HL-60
# TK-10 = test system: TK-10
# HT-29 = test system: HT-29
# MDA-MB-231 = test system: MDA-MB-231
# HOP-62 = test system: HOP-62
# OVCAR-5 = test system: OVCAR-5
# NCI-H460 = test system: NCI-H460
# RPMI-8226 = test system: RPMI-8226
# COLO 205 = test system: COLO 205
# SF-539 = test system: SF-539
Structure (SMILES),GI50 (HCC 2998),GI50 (SK-MEL-5),GI50 (NCI-H23),GI50 (ACHN),GI50 (SF-295),GI50 (U-251),GI50 (SNB-19),GI50 (UACC-257),GI50 (SW-620),GI50 (LOX IMVI),GI50 (HL-60),GI50 (TK-10),GI50 (HT-29),GI50 (MDA-MB-231),GI50 (HOP-62),GI50 (OVCAR-5),GI50 (NCI-H460),GI50 (RPMI-8226),GI50 (COLO 205),GI50 (SF-539)
O=c1[nH]c2nc(S)nc(S)c2[nH]1,> 100 µM (inactive),> 100 µM (inactive),> 100 µM (inactive),> 100 µM (inactive),> 100 µM (inactive),> 100 µM (inactive),> 100 µM (inactive),> 100 µM (inactive),> 100 µM (inactive),> 100 µM (inactive),> 100 µM (inactive),> 100 µM (inactive),> 100 µM (inactive),> 100 µM (inactive),> 100 µM (inactive),> 100 µM (inactive),> 100 µM (inactive),> 100 µM (inactive),–,–
COc1ccc(-n2c(-c3ccccc3)cc(-c3cccs3)c2-c2cccs2)cc1,> 100 µM (inactive),> 100 µM (inactive),6.73 µM (inactive),> 100 µM (inactive),> 100 µM (inactive),> 100 µM (inactive),–,> 100 µM (inactive),> 100 µM (inactive),> 100 µM (inactive),–,> 100 µM (inactive),> 100 µM (inactive),10.1 µM (inactive),> 100 µM (inactive),> 100 µM (inactive),> 100 µM (inactive),> 100 µM (inactive),> 100 µM (inactive),39.1 µM (inactive)
CCOC(=O)C(=[N+]=[N-])C(=O)C[N+]12CCN(CC1)CC2,> 100 µM (inactive),> 100 µM (inactive),> 100 µM (inactive),> 100 µM (inactive),> 100 µM (inactive),> 100 µM (inactive),> 100 µM (inactive),> 100 µM (inactive),> 100 µM (inactive),> 100 µM (inactive),–,> 100 µM (inactive),> 100 µM (inactive),> 100 µM (inactive),> 100 µM (inactive),> 100 µM (inactive),> 100 µM (inactive),> 100 µM (inactive),> 100 µM (inactive),–
CCOP(=O)(CC1OC(CO)C(O)C1O)OCC (stereo not drawn),> 100 µM (inactive),> 100 µM (inactive),> 46.7 µM (inactive),> 100 µM (inactive),> 100 µM (inactive),> 100 µM (inactive),> 100 µM (inactive),> 100 µM (inactive),> 100 µM (inactive),> 100 µM (inactive),> 100 µM (inactive),> 100 µM (inactive),–,> 100 µM (inactive),> 100 µM (inactive),> 100 µM (inactive),> 100 µM (inactive),> 100 µM (inactive),> 100 µM (inactive),> 100 µM (inactive)
C=C1C(=O)O[C@H]2[C@H]3O[C@@H](C[C@@H]12)[C@](C)(O)CCCC(C)=CCC[C@H]3C,11.1 µM (inactive),10.8 µM (inactive),14.5 µM (inactive),10.1 µM (inactive),16.5 µM (inactive),14 µM (inactive),16.9 µM (inactive),10.3 µM (inactive),5.13 µM (inactive),14.3 µM (inactive),–,3.24 µM (inactive),13.5 µM (inactive),11.7 µM (inactive),16.7 µM (inactive),14.6 µM (inactive),5.18 µM (inactive),3.17 µM (inactive),3.38 µM (inactive),10.2 µM (inactive)
Cc1ccc(S(=O)(=O)NC(=O)C2=C(c3ccccc3)[N-]N(C)c3nc4cccc[n+]4nc32)cc1,> 100 µM (inactive),98.9 µM (inactive),> 100 µM (inactive),> 100 µM (inactive),–,> 100 µM (inactive),> 100 µM (inactive),66.4 µM (inactive),49.2 µM (inactive),96.4 µM (inactive),> 100 µM (inactive),> 100 µM (inactive),> 100 µM (inactive),50.9 µM (inactive),–,> 100 µM (inactive),> 100 µM (inactive),45.6 µM (inactive),23.1 µM (inactive),> 100 µM (inactive)
CC(=O)C1(O)Cc2c(O)c3c(c(O)c2C(OC2CC(N)C(O)C(C)O2)C1)C(=O)c1ccccc1C3=O (stereo not drawn),0.0385 µM (active),0.0241 µM (active),0.0227 µM (active),0.00438 µM (active),0.0141 µM (active),0.0255 µM (active),0.0373 µM (active),0.121 µM (active),0.0221 µM (active),0.01 µM (active),0.00206 µM (active),0.053 µM (active),0.0252 µM (active),0.252 µM (active),0.0141 µM (active),0.141 µM (active),0.000569 µM (active),–,0.0796 µM (active),0.0163 µM (active)
COc1cc(/C=C\C(=O)O)ccc1OCc1ccccc1,> 100 µM (inactive),> 100 µM (inactive),> 100 µM (inactive),> 100 µM (inactive),> 100 µM (inactive),> 100 µM (inactive),> 100 µM (inactive),> 100 µM (inactive),> 100 µM (inactive),> 100 µM (inactive),> 100 µM (inactive),> 100 µM (inactive),–,> 100 µM (inactive),> 100 µM (inactive),> 100 µM (inactive),> 100 µM (inactive),> 100 µM (inactive),> 100 µM (inactive),> 100 µM (inactive)
